We go through 8 compounds from PubChem BioAssay AID248 (DTP/NCI, 2004).

Where “and” joins values, the source holds several entries; their conditions need not be identical. Equal values may be shown once. Inconclusive results and toxic doses are left out.

The assay has as its system L1210 leukemia ip in BDF1 mice, survival T/C. The assay can be described thus: NCI In Vivo Anticancer Drug Screen. Data for tumor model L1210 Leukemia (intraperitoneal) in B6D2F1 (BDF1) mice. The settings on record: endpoint: mean survival time, higher = longer survival. Put shortly: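 Transplantable tumor model; survival measured in treated vs vehicle control mice. Value = treated/control.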

In the case of `CN[C@H]1CCc2cc(OC)c(OC)c(OC)c2-c2ccc(OC)c(=O)cc21`, the T/C reads like this: (dose: 0.14 mg/kg/injection, schedule: Q01DX009 (ip), vehicle: saline) 95 % of control; (dose: 0.23 mg/kg/injection, schedule: Q01DX009 (ip), vehicle: saline) 104 % of control; (dose: 0.39 mg/kg/injection, schedule: Q01DX009 (ip), vehicle: saline) 112 % of control; (dose: 0.39 mg/kg/injection, schedule: Q04DX003 (ip), vehicle: saline) 101 % of control; (dose: 0.65 mg/kg/injection, schedule: Q01DX009 (ip), vehicle: saline) 110 % of control; (dose: 0.65 mg/kg/injection, schedule: Q04DX003 (ip), vehicle: saline) 102 % of control. The T/C (dose: 1.0 mg/kg/injection, schedule: Q03HX008 (ip), vehicle: saline) is 118 % of control; the T/C (dose: 1.08 mg/kg/injection, schedule: Q01DX009 (ip), vehicle: saline) was 110 % of control; the T/C (dose: 1.08 mg/kg/injection, schedule: Q04DX003 (ip), vehicle: saline) is 101 % of control; the T/C (dose: 1.8 mg/kg/injection, schedule: Q04DX003 (ip), vehicle: saline) was 101 % of control; the T/C (dose: 2.0 mg/kg/injection, schedule: Q01DX004 (ip), vehicle: saline) was 106 % of control; the T/C (dose: 2.0 mg/kg/injection, schedule: Q01DX004 (oral), vehicle: saline) is 103 % of control. Moreover, the T/C is 120 % of control (dose: 2.0 mg/kg/injection, schedule: Q03HX008 (ip), vehicle: saline); 100 % of control (dose: 3.0 mg/kg/injection, schedule: Q01DX001 (ip), vehicle: saline); 95 % of control (dose: 3.0 mg/kg/injection, schedule: Q04DX003 (ip), vehicle: saline); 103 % of control (dose: 4.0 mg/kg/injection, schedule: Q01DX001 (oral), vehicle: saline); 106 % of control (dose: 4.0 mg/kg/injection, schedule: Q01DX004 (ip), vehicle: saline); 111 % of control (dose: 4.0 mg/kg/injection, schedule: Q01DX004 (oral), vehicle: saline). In addition, the T/C by setting is: (dose: 5.0 mg/kg/injection, schedule: Q01DX001 (ip), vehicle: saline) 103 % of control; (dose: 5.3 mg/kg/injection, schedule: Q01DX001 (ip), vehicle: saline) 102 % of control; (dose: 8.0 mg/kg/injection, schedule: Q01DX001 (ip), vehicle: saline) 101 % of control and 102 % of control; (dose: 8.0 mg/kg/injection, schedule: Q01DX001 (oral), vehicle: saline) 108 % of control; (dose: 8.0 mg/kg/injection, schedule: Q01DX004 (ip), vehicle: saline) 113 % of control; (dose: 8.0 mg/kg/injection, schedule: Q01DX004 (oral), vehicle: saline) 111 % of control. Besides, the T/C was 156 % of control (dose: 8.0 mg/kg/injection, schedule: Q03HX008 (ip), vehicle: saline); 119 % of control (dose: 8.0 mg/kg/injection, schedule: Q## X002 (ip), vehicle: saline); 100 % of control (dose: 8.0 mg/kg/injection, schedule: Q## X003 (ip), vehicle: saline); 107 % of control (dose: 8.0 mg/kg/injection, schedule: Q## X008 (ip), vehicle: saline); 110 % of control (dose: 8.0 mg/kg/injection, schedule: Q## X016 (ip), vehicle: saline); 104 % of control (dose: 9.0 mg/kg/injection, schedule: Q01DX001 (ip), vehicle: saline). The T/C runs as follows: (dose: 12.0 mg/kg/injection, schedule: Q01DX001 (ip), vehicle: saline) 104 % of control; (dose: 16.0 mg/kg/injection, schedule: Q01DX001 (ip), vehicle: saline) 105 % of control; (dose: 16.0 mg/kg/injection, schedule: Q01DX001 (oral), vehicle: saline) 109 % of control; (dose: 16.0 mg/kg/injection, schedule: Q01DX004 (ip), vehicle: saline) 118 % of control; (dose: 16.0 mg/kg/injection, schedule: Q## X002 (ip), vehicle: saline) 98 % of control; (dose: 16.0 mg/kg/injection, schedule: Q## X003 (ip), vehicle: saline) 112 % of control. Also, the T/C is 112 % of control (dose: 16.0 mg/kg/injection, schedule: Q## X016 (ip), vehicle: saline); 100 % of control (dose: 16.0 mg/kg/injection, schedule: Q## X024 (ip), vehicle: saline); 114 % of control (dose: 18.0 mg/kg/injection, schedule: Q01DX001 (ip), vehicle: saline); 101 % of control and 103 % of control (dose: 32.0 mg/kg/injection, schedule: Q01DX001 (ip), vehicle: saline); 119 % of control and 124 % of control (dose: 32.0 mg/kg/injection, schedule: Q01DX001 (oral), vehicle: saline); 102 % of control (dose: 32.0 mg/kg/injection, schedule: Q01DX009 (ip), vehicle: saline). The T/C (dose: 32.0 mg/kg/injection, schedule: Q## X002 (ip), vehicle: saline) was 117 % of control; the T/C (dose: 32.0 mg/kg/injection, schedule: Q## X003 (ip), vehicle: saline) is 104 % of control; the T/C (dose: 32.0 mg/kg/injection, schedule: Q## X016 (ip), vehicle: saline) was 110 % of control; the T/C (dose: 64.0 mg/kg/injection, schedule: Q01DX001 (ip), vehicle: saline) is 114 % of control and 116 % of control; the T/C (dose: 64.0 mg/kg/injection, schedule: Q## X016 (ip), vehicle: saline) was 89 % of control; the T/C (dose: 128.0 mg/kg/injection, schedule: Q01DX001 (ip), vehicle: saline) was 124 % of control. Besides, under “dose: 256.0 mg/kg/injection, schedule: Q01DX001 (ip), vehicle: saline”, the T/C is 123 % of control.

On to `c1coc(CNCNCc2ccco2)c1`, for which the T/C (dose: 155.0 mg/kg/injection, schedule: Q01DX Z (ip), vehicle: methylcellulose (MC)) is 94 % of control; the T/C (dose: 233.0 mg/kg/injection, schedule: Q01DX Z (ip), vehicle: methylcellulose (MC)) was 105 % of control; the T/C (dose: 350.0 mg/kg/injection, schedule: Q01DX Z (ip), vehicle: methylcellulose (MC)) was 100 % of control.

On to `CCCCNC(=O)Nc1cc(Cl)c(Cl)cc1C`, for which the T/C is 91 % of control (dose: 100.0 mg/kg/injection, schedule: Q04DX002 (ip), vehicle: Klucel (hydroxypropylcellulose) (HPC)); 97 % of control (dose: 200.0 mg/kg/injection, schedule: Q04DX002 (ip), vehicle: Klucel (hydroxypropylcellulose) (HPC)); 97 % of control (dose: 400.0 mg/kg/injection, schedule: Q04DX002 (ip), vehicle: Klucel (hydroxypropylcellulose) (HPC)).

Turning to `O=C(O)c1c(Br)c(Br)c(Br)c(Br)c1C(=O)Nc1ccc(Cl)c(Cl)c1`, the T/C reads like this: (dose: 100.0 mg/kg/injection, schedule: Q01DX009 (ip), vehicle: Klucel (hydroxypropylcellulose) (HPC)) 95 % of control; (dose: 200.0 mg/kg/injection, schedule: Q01DX009 (ip), vehicle: Klucel (hydroxypropylcellulose) (HPC)) 98 % of control; (dose: 400.0 mg/kg/injection, schedule: Q01DX009 (ip), vehicle: Klucel (hydroxypropylcellulose) (HPC)) 120 % of control.

`Nc1nc2nc(-c3ccc([N+](=O)[O-])cc3)nc(N)c2nc1-c1ccc(N(CCCl)CCCl)cc1`: the T/C is, setting by setting: (dose: 100.0 mg/kg/injection, schedule: Q01DX001 (ip), vehicle: saline) 96 % of control; (dose: 200.0 mg/kg/injection, schedule: Q01DX001 (ip), vehicle: saline) 95 % of control; (dose: 400.0 mg/kg/injection, schedule: Q01DX001 (ip), vehicle: saline) 101 % of control.

Take `Cc1cc2ncn(CO)c2cc1C`: the T/C is, setting by setting: (dose: 100.0 mg/kg/injection, schedule: Q04DX003 (ip), vehicle: saline with Tween-80) 100 % of control; (dose: 200.0 mg/kg/injection, schedule: Q04DX003 (ip), vehicle: saline with Tween-80) 94 % of control; (dose: 400.0 mg/kg/injection, schedule: Q04DX003 (ip), vehicle: saline with Tween-80) 100 % of control.

Regarding `C=CCOc1ccnc(SC)n1`, the T/C is, setting by setting: (dose: 75.0 mg/kg/injection, schedule: Q01DX009 (ip), vehicle: Klucel (hydroxypropylcellulose) (HPC)) 98 % of control; (dose: 150.0 mg/kg/injection, schedule: Q01DX009 (ip), vehicle: Klucel (hydroxypropylcellulose) (HPC)) 103 % of control; (dose: 300.0 mg/kg/injection, schedule: Q01DX009 (ip), vehicle: Klucel (hydroxypropylcellulose) (HPC)) 90 % of control.

In the case of `Cc1cccc(C(=O)NCC(=O)O)c1`, the T/C was 98 % of control (dose: 50.0 mg/kg/injection, schedule: Q01DX009 (ip), vehicle: saline); 94 % of control (dose: 100.0 mg/kg/injection, schedule: Q01DX009 (ip), vehicle: saline); 99 % of control (dose: 100.0 mg/kg/injection, schedule: Q04DX002 (ip), vehicle: saline with Tween-80); 91 % of control (dose: 200.0 mg/kg/injection, schedule: Q01DX009 (ip), vehicle: saline); 96 % of control (dose: 200.0 mg/kg/injection, schedule: Q04DX002 (ip), vehicle: saline with Tween-80).
